# Test results from patent publication US20150031102A1, “METHODS AND COMPOSITIONS FOR ENHANCED PRODUCTION OF BUTANOL BY CLOSTRIDIA” (Butrolix LLC, priority 2012, published 2015).
# Key:
# [1] = tested on: C. beijerinckii NCIMB 8052; assay: Sequential batch cultures of C. beijerinckii NCIMB 8052 grown at 30° C. in YEPG (growth OD600, final pH, ceric ion reactive compounds); format: cell-based, Clostridium beijerinckii
# Procedure: (§1) Clostridium acetobutylicum ATCC 824 and C. beijerinckii NCIMB 8052 are available from several commercial microbial culture collections including the American Type Culture Collection (ATCC), Manassas, Va., USA. The strain grown at 30 C or 37 C in YE broth, which contained, per liter: 5.0 g yeast extract, 2.5 g casamino acids, 1.0 g L-asparagine, 0.5 g cysteine·HCl, 56 mg K2HPO4, 56 mg KH2PO4, 82 mg anhydrous MgSO4, 8 mg FeSO4.H2O, 6 mg MnSO4.H2O and 10 g glucose. Alternatively, strains were grown in YEPG broth, which was identical to YE expect that K2HPO4 and KH2PO4 were increased to 145 mg/L each and glucose was increased to 60 g/L. The pH of the media was adjusted to 7.2 using 45% KOH prior to sterilization by autoclaving. Media were solidified by addition of 1.5% Bacteriological Agar, Acumedia Manufacturers, Inc., Lansing, Mich. All cultures were grown in anaerobic conditions using the AnaeroPack System, Mitsubishi Gas Chemical Co., Inc., Japan, and GasPak EZ Gas Generating Sachets, Becton, Dickinson and Co., Sparks, Md. Spore stocks were kept at room temperature on agar-solidified media and were activated by suspending spores in 0.5 mL to 1.0 mL of medium followed by heating for 10 min at 80 C before inoculation into growth medium.
# (§2) Growth of bacterial cultures was measured spectrophotometrically using optical density at 600 nm and pH of cell-free culture supernatants was measured using a hand-held Shindengen ISFET pH Meter KS501, Shendengen Electric Manufacturing Co., Ltd., Bannockburn, Ill.
# (§3) Total alcohols in cell-free culture supernatants were measured using a modification of a colorimetric method based on ceric ammonium nitrate (Reid and Truelove, 1952). The ceric ion reagent was prepared by adding 1.3 mL of concentrated nitric acid to 40 mL of distilled water, then 10.96 g of ceric ammonium nitrate was dissolved in the dilute nitric acid solution and the solution was brought to a final volume of 50 mL. For the assay, […] of butanol standard or culture supernatant was mixed with […] distilled water in a disposable plastic cuvette followed by addition of […] of the ceric ion reagent. The sample was mixed by inverting the cuvette six times then exactly two minutes later the optical density at 500 nm wavelength was measured. The concentration of total alcohols was determined by comparison with a standard curve prepared by using butanol diluted in distilled water.
# Spores of C. beijerinckii NCIMB 8052 were germinated and grown overnight at 30 C under anaerobic conditions in YEPG medium. After about 24 h of growth, […] of the culture was transferred (transfer 1) to each of four flasks that contained 10 mL of YEPG and either had no treatment or were treated with peptide SEQ ID NO: 145 (see Table 8) at 1 nM, 10 nM or 50 nM. Thereafter, […] of each culture was transferred, at the same time, every 24-48 h to 10 mL of fresh YEPG that contained the same peptide treatment or no treatment. Each culture was stopped after 96 hours of incubation and optical density, pH and ceric ion reactive chemicals were measured. Sequential batch culturing was continued through 6 transfers at which point all cultures appeared to be growing to the same extent (Table 12 and FIG. 4).
# [2] = tested on: C. beijerinckii NCIMB 8052; assay: Germination and sequential batch cultures of C. beijerinckii NCIMB 8052 grown at 37° C. (growth OD600, final pH, ceric ion reactive compounds); format: cell-based, Clostridium beijerinckii
# Procedure: as §1, §2, §3
# Spores of C. beijerinckii NCIMB 8052 were germinated and grown overnight at 37 C under anaerobic conditions in YEPG medium that either contained 50 nM of peptide SEQ ID NO: 145 or no added peptide. After about 24 h of growth, […] of the untreated culture was transferred (transfer 1) to each of two flasks that contained 10 mL of YEPG with either no treatment or with 50 nM peptide SEQ ID NO: 145. At the same time, 10 μL of the culture that was germinated in the presence of peptide SEQ ID NO: 145 was also transferred to 10 mL of YEPG that contained 50 nM of peptide SEQ ID NO: 145. Thereafter, […] of each culture was transferred, at the same time, every 24-48 h to 10 mL of fresh YEPG that contained the same peptide treatment or no treatment. Each culture was stopped after 72 hours of incubation and optical density, pH and ceric ion reactive chemicals were measured. Addition of peptide SEQ ID NO: 145 appeared to have no effect on endpoint measurements of the growth of C. beijerinckii NCIMB 8052 after germination or during sequential transfers of cultures at 37° C. (Table 18 and FIG. 10). All three cultures stopped growing at the second transfer. Likewise, there was no apparent effect on endpoint measurements of pH or ceric ion reactive compounds (Tables 19 and 20 and FIGS. 11 and 12).
# [3] = 10 nM, transfer 1, 96 h culture
# [4] = 10 nM, transfer 2, 96 h culture
# [5] = 10 nM, transfer 3, 96 h culture
# [6] = 10 nM, transfer 4, 96 h culture
# [7] = 10 nM, transfer 5, 96 h culture
# [8] = 10 nM, transfer 6, 96 h culture
# [9] = 50 nM, transfer 1, 96 h culture
# [10] = 50 nM, transfer 2, 96 h culture
# [11] = 50 nM, transfer 3, 96 h culture
# [12] = 50 nM, transfer 4, 96 h culture
# [13] = 50 nM, transfer 5, 96 h culture
# [14] = 50 nM, transfer 6, 96 h culture
# [15] = 50 nM added after germination, transfer 1, 72 h culture
# [16] = 50 nM added after germination, transfer 2, 72 h culture
# [17] = 50-50 (germinated and transferred in 50 nM), transfer 1, 72 h culture
# [18] = 50-50 (germinated and transferred in 50 nM), transfer 2, 72 h culture
# [19] = 50-50 (spores germinated in 50 nM peptide), transfer 0 (germinated culture), 72 h culture
substance,measurement,setting,value
IRLIT (Derived from Clostridium beijerinckii SEQ ID NO: 141) [peptide SEQ ID NO: 145],Culture degeneration in terms of production of total alcohols,[1],transiently increase culture degeneration
same,Final pH,"[1]; 1 nM, transfer 1, 96 h culture",5.3
same,Optical density at 600 nm,"[1]; 1 nM, transfer 1, 96 h culture",2.086
same,Optical density of ceric ion reactive compounds measured at 500 nm,"[1]; 1 nM, transfer 1, 96 h culture",0.065
same,Final pH,"[1]; 1 nM, transfer 2, 96 h culture",5.3
same,Optical density at 600 nm,"[1]; 1 nM, transfer 2, 96 h culture",2.086
same,Optical density of ceric ion reactive compounds measured at 500 nm,"[1]; 1 nM, transfer 2, 96 h culture",0.032
same,Final pH,"[1]; 1 nM, transfer 3, 96 h culture",5.1
same,Optical density at 600 nm,"[1]; 1 nM, transfer 3, 96 h culture",2.106
same,Optical density of ceric ion reactive compounds measured at 500 nm,"[1]; 1 nM, transfer 3, 96 h culture",0.054
same,Final pH,"[1]; 1 nM, transfer 4, 96 h culture",5.3
same,Optical density at 600 nm,"[1]; 1 nM, transfer 4, 96 h culture",2.115
same,Optical density of ceric ion reactive compounds measured at 500 nm,"[1]; 1 nM, transfer 4, 96 h culture",0.041
same,Final pH,"[1]; 1 nM, transfer 5, 96 h culture",5.3
same,Optical density at 600 nm,"[1]; 1 nM, transfer 5, 96 h culture",2.090
same,Optical density of ceric ion reactive compounds measured at 500 nm,"[1]; 1 nM, transfer 5, 96 h culture",0.061
same,Final pH,"[1]; 1 nM, transfer 6, 96 h culture",5.3
same,Optical density at 600 nm,"[1]; 1 nM, transfer 6, 96 h culture",2.075
same,Optical density of ceric ion reactive compounds measured at 500 nm,"[1]; 1 nM, transfer 6, 96 h culture",0.062
same,Final pH,[1]; [3],5.3
same,Optical density at 600 nm,[1]; [3],2.080
same,Optical density of ceric ion reactive compounds measured at 500 nm,[1]; [3],0.050
same,Final pH,[1]; [4],5.3
same,Optical density at 600 nm,[1]; [4],2.093
same,Optical density of ceric ion reactive compounds measured at 500 nm,[1]; [4],0.008
same,Final pH,[1]; [5],5.0
same,Optical density at 600 nm,[1]; [5],2.078
same,Optical density of ceric ion reactive compounds measured at 500 nm,[1]; [5],0.025
same,Final pH,[1]; [6],5.3
same,Optical density at 600 nm,[1]; [6],2.108
same,Optical density of ceric ion reactive compounds measured at 500 nm,[1]; [6],0.047
same,Final pH,[1]; [7],5.4
same,Optical density at 600 nm,[1]; [7],2.069
same,Optical density of ceric ion reactive compounds measured at 500 nm,[1]; [7],0.065
same,Final pH,[1]; [8],5.3
same,Optical density at 600 nm,[1]; [8],2.062
same,Optical density of ceric ion reactive compounds measured at 500 nm,[1]; [8],0.055
same,Final pH,[1]; [9],5.4
same,Optical density at 600 nm,[1]; [9],2.102
same,Optical density of ceric ion reactive compounds measured at 500 nm,[1]; [9],0.060
same,Final pH,[1]; [10],5.3
same,Optical density at 600 nm,[1]; [10],2.023
same,Optical density of ceric ion reactive compounds measured at 500 nm,[1]; [10],0.023
same,Final pH,[1]; [11],5.2
same,Optical density at 600 nm,[1]; [11],1.936
same,Final pH,[1]; [12],5.3
same,Optical density at 600 nm,[1]; [12],2.061
same,Optical density of ceric ion reactive compounds measured at 500 nm,[1]; [12],0.039
same,Final pH,[1]; [13],5.3
same,Optical density at 600 nm,[1]; [13],2.120
same,Optical density of ceric ion reactive compounds measured at 500 nm,[1]; [13],0.051
same,Final pH,[1]; [14],5.3
same,Optical density at 600 nm,[1]; [14],2.046
same,Optical density of ceric ion reactive compounds measured at 500 nm,[1]; [14],0.059
same,Growth of treated cultures during 96 h of incubation,"[1]; 1, 10, 50 nM, dose dependent manner, data not shown",slow the growth
same,Final pH,"[1]; all cultures (0, 1, 10, 50 nM), after the third transfer",~5.3
same,Number of times that cultures could be transferred,"[1]; through six culture transfers, in comparison with an untreated culture",did not affect
same,Effect on germination and growth (visual observations through the course of growth),[2]; 50 nM,repressive effect on germination and growth
same,Final pH,[2]; [15],4.1
same,Optical density at 600 nm,[2]; [15],1.313
same,Optical density of ceric ion reactive compounds measured at 500 nm,[2]; [15],−0.026
same,Final pH,[2]; [16],6.5
same,Optical density at 600 nm,[2]; [16],0.011
same,Optical density of ceric ion reactive compounds measured at 500 nm,[2]; [16],0.006
same,Effect on endpoint measurements of growth,"[2]; 50 nM, after germination or during sequential transfers",no effect
same,Final pH,[2]; [17],4.1
same,Optical density at 600 nm,[2]; [17],1.420
same,Optical density of ceric ion reactive compounds measured at 500 nm,[2]; [17],−0.038
same,Final pH,[2]; [18],6.6
same,Optical density at 600 nm,[2]; [18],0.011
same,Optical density of ceric ion reactive compounds measured at 500 nm,[2]; [18],0.002
same,Final pH,[2]; [19],4.1
same,Optical density at 600 nm,[2]; [19],1.158
same,Optical density of ceric ion reactive compounds measured at 500 nm,[2]; [19],−0.017
